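Growth conditions: 96-well plates. Treatment: test compound, 48 hours, 5 concentrations. Analysis: linear interpolation between bracketing concentrations; unreached endpoints set to highest concentration. TGI marks complete inhibition of growth.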
What was measured:
Assay in all cases: NCI anticancer screen, dose series, 48 h
[1] = system: 786-0 renal
[2] = system: A549 NSCLC
[3] = system: ACHN renal
[4] = system: CAKI-1 renal
[5] = system: CCRF-CEM leukemia
[6] = system: COLO 205 colon
[7] = system: DU-145 prostate
[8] = system: EKVX NSCLC
[9] = system: HCC-2998 colon
[10] = system: HCT-116 colon
[11] = system: HCT-15 colon
[12] = system: HL-60(TB) leukemia
[13] = system: HOP-62 NSCLC
[14] = system: HOP-92 NSCLC
[15] = system: HS 578T breast
[16] = system: HT29 colon
[17] = system: IGROV1 ovarian
[18] = system: K-562 leukemia
[19] = system: KM12 colon
[20] = system: LOX IMVI melanoma
[21] = system: M14 melanoma
[22] = system: MALME-3M melanoma
[23] = system: MCF7 breast
[24] = system: MDA-MB-231 breast
[25] = system: MDA-MB-435
[26] = system: MDA-N
[27] = system: MOLT-4 leukemia
[28] = system: NCI-H226 lung
[29] = system: NCI-H23 lung
[30] = system: NCI-H460 lung
[31] = system: NCI/ADR-RES ovarian
[32] = system: OVCAR-3 ovarian
[33] = system: OVCAR-4 ovarian
[34] = system: OVCAR-5 ovarian
[35] = system: OVCAR-8 ovarian
[36] = system: PC-3 prostate
[37] = system: RPMI-8226 leukemia
[38] = system: SF-268 CNS
[39] = system: SF-295 CNS
[40] = system: SF-539 CNS
[41] = system: SK-MEL-28 melanoma
[42] = system: SK-MEL-5 melanoma
[43] = system: SK-OV-3 ovarian
[44] = system: SN12C renal
[45] = system: SNB-75 CNS
[46] = system: SR leukemia
[47] = system: SW-620 colon
[48] = system: T-47D breast
[49] = system: TK-10 renal
[50] = system: U251 CNS
[51] = system: UACC-62 melanoma
[52] = system: UO-31 renal
[53] = system: A498 renal
[54] = system: NCI-H522 lung
[55] = system: RXF 393 renal
[56] = system: SK-MEL-2 melanoma
[57] = system: SNB-19 CNS
[58] = system: UACC-257 melanoma

Q: Which results are given for `Cc1cc(C)c(OC(=O)Nc2cccc3ccccc23)c(-c2ccccc2)c1`?
A: TGI [1]: > 100 µM; TGI [2]: > 100 µM; TGI [3]: 94.9 µM; TGI [4]: 93 µM; TGI [5]: > 100 µM; TGI [6]: > 100 µM; TGI [7]: > 100 µM; TGI [8]: > 100 µM; TGI [9]: 91.8 µM; TGI [10]: > 100 µM; TGI [11]: > 100 µM; TGI [12]: > 100 µM; TGI [13]: > 100 µM; TGI [14]: 78.6 µM; TGI [15]: > 100 µM; TGI [16]: > 100 µM; TGI [17]: > 100 µM; TGI [18]: > 100 µM; TGI [19]: > 100 µM; TGI [20]: > 100 µM; TGI [21]: > 100 µM; TGI [22]: > 100 µM; TGI [23]: > 100 µM; TGI [24]: > 100 µM; TGI [25]: 82.2 µM; TGI [26]: > 100 µM; TGI [27]: 37.3 µM; TGI [28]: 58.4 µM; TGI [29]: > 100 µM; TGI [30]: > 100 µM; TGI [31]: > 100 µM; TGI [32]: > 100 µM; TGI [33]: > 100 µM; TGI [34]: > 100 µM; TGI [35]: > 100 µM; TGI [36]: > 100 µM; TGI [37]: > 100 µM; TGI [38]: 80.1 µM; TGI [39]: > 100 µM; TGI [40]: > 100 µM; TGI [41]: > 100 µM; TGI [42]: 34.6 µM; TGI [43]: > 100 µM; TGI [44]: > 100 µM; TGI [45]: 47.4 µM; TGI [46]: > 100 µM; TGI [47]: > 100 µM; TGI [48]: > 100 µM; TGI [49]: > 100 µM; TGI [50]: > 100 µM; TGI [51]: > 100 µM; TGI [52]: 26.8 µM

Q: With `COc1ccc(C2C=C(c3ccccc3)Nc3nnnn32)cc1` (stereo unspecified) as the compound, how does the TGI [1] read?
A: Its TGI is 91.1 µM.

Q: And the TGI [53]?
A: The TGI was over 100 µM.

Q: And the TGI [2]?
A: Its TGI is over 100 µM.

Q: And the TGI [3]?
A: Its TGI is 60.3 µM.

Q: What about the TGI [4] of the same compound?
A: Its TGI is over 100 µM.

Q: And the TGI [5]?
A: The TGI was over 100 µM.

Q: And the TGI [6]?
A: Its TGI is over 100 µM.

Q: And the TGI [7]?
A: Its TGI is over 100 µM.

Q: What about the TGI [10] of the same compound?
A: The TGI was 29.3 µM.

Q: And the TGI [11]?
A: Its TGI is over 100 µM.

Q: And the TGI [12]?
A: Its TGI is over 100 µM.

Q: And the TGI [13]?
A: The TGI was 66.8 µM.

Q: And the TGI [15]?
A: Its TGI is over 100 µM.

Q: What about the TGI [16] of the same compound?
A: Its TGI is 34.2 µM.

Q: What about the TGI [17] of the same compound?
A: Its TGI is over 100 µM.

Q: And the TGI [18]?
A: Its TGI is over 100 µM.

Q: What about the TGI [19] of the same compound?
A: Its TGI is 34.8 µM.

Q: What about the TGI [20] of the same compound?
A: Its TGI is over 100 µM.

Q: And the TGI [21]?
A: The TGI was over 100 µM.

Q: What about the TGI [23] of the same compound?
A: Its TGI is 84.4 µM.

Q: What about the TGI [24] of the same compound?
A: The TGI was 90.5 µM.

Q: And the TGI [25]?
A: The TGI was over 100 µM.

Q: And the TGI [26]?
A: Its TGI is over 100 µM.

Q: What about the TGI [27] of the same compound?
A: The TGI was over 100 µM.

Q: What about the TGI [28] of the same compound?
A: The TGI was over 100 µM.

Q: What about the TGI [29] of the same compound?
A: Its TGI is over 100 µM.

Q: What about the TGI [30] of the same compound?
A: The TGI was over 100 µM.

Q: What about the TGI [54] of the same compound?
A: Its TGI is 57.7 µM.

Q: And the TGI [31]?
A: Its TGI is over 100 µM.

Q: And the TGI [32]?
A: The TGI was 77.8 µM.

Q: What about the TGI [34] of the same compound?
A: The TGI was over 100 µM.

Q: What about the TGI [35] of the same compound?
A: The TGI was over 100 µM.

Q: And the TGI [36]?
A: Its TGI is over 100 µM.

Q: And the TGI [37]?
A: The TGI was 80.2 µM.

Q: And the TGI [55]?
A: The TGI was 50.9 µM.

Q: And the TGI [38]?
A: The TGI was over 100 µM.

Q: What about the TGI [39] of the same compound?
A: Its TGI is 88.3 µM.

Q: What about the TGI [40] of the same compound?
A: The TGI was 53.1 µM.

Q: What about the TGI [56] of the same compound?
A: Its TGI is over 100 µM.

Q: And the TGI [42]?
A: The TGI was over 100 µM.

Q: And the TGI [43]?
A: Its TGI is 93 µM.

Q: And the TGI [44]?
A: The TGI was over 100 µM.

Q: What about the TGI [57] of the same compound?
A: The TGI was over 100 µM.

Q: And the TGI [46]?
A: Its TGI is over 100 µM.

Q: And the TGI [47]?
A: Its TGI is over 100 µM.

Q: And the TGI [48]?
A: The TGI was 60.4 µM.

Q: And the TGI [49]?
A: The TGI was 29.8 µM.

Q: What about the TGI [50] of the same compound?
A: Its TGI is 56.1 µM.

Q: And the TGI [58]?
A: The TGI was over 100 µM.

Q: What about the TGI [51] of the same compound?
A: Its TGI is over 100 µM.

Q: And the TGI [52]?
A: The TGI was over 100 µM.

Q: For `Nc1nc2c(ncn2CC2CCC(CO)C2)c(=O)[nH]1` (stereo unspecified), which TGI [1] is on record?
A: Its TGI is over 100 µM.

Q: What about the TGI [53] of the same compound?
A: The TGI was over 100 µM.

Q: What about the TGI [2] of the same compound?
A: Its TGI is over 100 µM.

Q: What about the TGI [3] of the same compound?
A: Its TGI is over 100 µM.

Q: What about the TGI [4] of the same compound?
A: Its TGI is over 100 µM.

Q: What about the TGI [5] of the same compound?
A: Its TGI is over 100 µM.

Q: And the TGI [6]?
A: Its TGI is over 100 µM.

Q: And the TGI [7]?
A: The TGI was over 100 µM.

Q: And the TGI [8]?
A: Its TGI is over 100 µM.

Q: What about the TGI [9] of the same compound?
A: The TGI was over 100 µM.

Q: And the TGI [10]?
A: Its TGI is over 100 µM.

Q: And the TGI [11]?
A: The TGI was over 100 µM.

Q: And the TGI [13]?
A: Its TGI is over 100 µM.

Q: And the TGI [14]?
A: Its TGI is over 100 µM.

Q: And the TGI [15]?
A: Its TGI is over 100 µM.

Q: And the TGI [18]?
A: Its TGI is over 100 µM.

Q: And the TGI [19]?
A: Its TGI is over 100 µM.

Q: And the TGI [20]?
A: Its TGI is over 100 µM.

Q: What about the TGI [21] of the same compound?
A: Its TGI is over 100 µM.

Q: And the TGI [23]?
A: Its TGI is over 100 µM.

Q: And the TGI [24]?
A: The TGI was over 100 µM.

Q: And the TGI [25]?
A: The TGI was over 100 µM.

Q: What about the TGI [26] of the same compound?
A: The TGI was over 100 µM.

Q: What about the TGI [28] of the same compound?
A: Its TGI is over 100 µM.

Q: And the TGI [31]?
A: Its TGI is over 100 µM.

Q: And the TGI [32]?
A: The TGI was over 100 µM.

Q: And the TGI [33]?
A: The TGI was over 100 µM.

Q: And the TGI [34]?
A: The TGI was over 100 µM.

Q: What about the TGI [36] of the same compound?
A: Its TGI is over 100 µM.

Q: And the TGI [37]?
A: Its TGI is over 100 µM.

Q: What about the TGI [55] of the same compound?
A: Its TGI is over 100 µM.

Q: What about the TGI [38] of the same compound?
A: Its TGI is over 100 µM.

Q: And the TGI [39]?
A: Its TGI is over 100 µM.

Q: What about the TGI [40] of the same compound?
A: Its TGI is over 100 µM.

Q: And the TGI [56]?
A: The TGI was over 100 µM.

Q: And the TGI [41]?
A: Its TGI is over 100 µM.

Q: What about the TGI [42] of the same compound?
A: Its TGI is over 100 µM.

Q: And the TGI [43]?
A: The TGI was over 100 µM.

Q: And the TGI [44]?
A: The TGI was over 100 µM.

Q: And the TGI [57]?
A: The TGI was over 100 µM.

Q: What about the TGI [45] of the same compound?
A: The TGI was over 100 µM.

Q: And the TGI [47]?
A: Its TGI is over 100 µM.

Q: And the TGI [48]?
A: The TGI was over 100 µM.

Q: And the TGI [49]?
A: The TGI was over 100 µM.

Q: And the TGI [50]?
A: The TGI was over 100 µM.

Q: And the TGI [58]?
A: Its TGI is over 100 µM.

Q: What about the TGI [51] of the same compound?
A: Its TGI is over 100 µM.

Q: What about the TGI [52] of the same compound?
A: The TGI was over 100 µM.

— PubChem BioAssay (NCI)
